Experiment: PET imaging and ex vivo biodistribution 4 h after oral administration of [68Ga]KP46, tracer (group C) and bulk (group D)
Assay type: in vivo, mice
Conditions: n = 3
Protocol: The tracer-level samples for oral administration were prepared in the same manner but with 20 μL of KP46-free DMSO in place of the KP46 solution in DMSO.
All animal experiments were performed in accordance with the Animals (Scientific Procedures) Act, 1986, with protocols approved by the Animal Welfare and Ethical Review Body for King’s College London under project and personal licences approved by the UK Home Office. Tumour xenograft studies were performed on female NSG mice or female athymic nude mice after injecting them subcutaneously in the right shoulder with 2.5 × 10^6 A375 cells in 100 µL of PBS. All in vivo studies were conducted between 14 and 24 days after inoculation, with tumour volumes between 100 mm^3 and 580 mm^3 (see Supplementary Materials, Figure S11).
Oral [^68/67Ga]KP46: The protocol for oral administration experiments reported here was devised on the basis of pilot experiments described in Supplementary Materials (Figure S12). For short-term (up to 4 h) studies with ^68Ga, awake (nonanaesthetised, to avoid suppressive effects of anaesthesia on digestive tract activity) mice that had been fasted for up to 14 h were given [^68Ga]KP46 (5–13 MBq) (group C, “tracer”, n = 3) or [^68Ga]KP46 and KP46 (5–8.5 MBq) (group D, “bulk”, n = 3) by oral gavage. The dose given orally to group D animals, prepared as described above, was 0.4 μmol in 400 μL, molar activity ca. 25 MBq/μmol. The mice were fasted for three hours before being anaesthetised and PET/CT scanned dynamically for one hour (see below for scanning protocol). After scanning, mice in both groups were culled by neck dislocation while still anaesthetised four hours post-oral administration for organ harvesting and gamma counting. Samples of blood, urine and contents of stomach, small intestine and large intestine (the organs/tissue with measurable activity; tumours were not included as they were insufficiently radioactive) from the mice in group C were used for octanol extraction (shake-flask method) to separate water-soluble (released) and lipid-soluble (intact KP46) ^68Ga. Serum samples were prepared by placing blood samples in a serum separator tube (brand VS367954, Fisher Scientific Ltd., Loughborough, UK) and centrifuging at 3000 rpm for 10 min. Serum (200–300 µL) and urine samples (150–180 µL, taken from the excised bladders) were directly added to Eppendorf tubes containing a pre-equilibrated mixture of octanol (500 µL) and water (500 µL). The tubes were vortexed for two minutes on a Multi Vortex Mixer V-32 (Grant Bio). After separation of layers, a sample of 400 µL from each layer was transferred to fresh Eppendorf tubes and analysed with a gamma counter. Stomach content (72–77 mg), small intestine content (35–88 mg), and large intestine content (86–100 mg) samples from each mouse were analysed similarly by adding them directly to Eppendorf tubes containing a pre-equilibrated mixture of octanol (500 µL) and water (500 µL) before vortexing and centrifuging at 10,000 rpm for 10 min at 4 °C. From each layer, 430 µL was transferred to fresh Eppendorf tubes and analysed with a gamma counter; the solid residues were also counted. Tissues from mice in group D were used after radioactive decay for measurements of nonradioactive ^69Ga content.
PET/CT images were acquired with a nanoScan® PET/CT (Mediso Medical Imaging Systems, Budapest, Hungary) scanner operating in list mode using a 400–600 keV energy window and a coincidence window of 1:3. CT scans were acquired for anatomical reference and attenuation correction (55 keV X-ray, exposure time 1000 ms, and 360 projections and pitch 1). PET projection data were reconstructed using the Tera-tomo® software package provided with the scanner —a Monte Carlo-based fully 3D iterative algorithm with four iterations, six subsets, and 0.4 mm isotropic voxel size; corrections for attenuation, scatter, and dead-time were enabled. […]

[68Ga+3].[O-]c1cccc2cccnc12.[O-]c1cccc2cccnc12.[O-]c1cccc2cccnc12 [[^68Ga]KP46]
68Ga activity delivered to tumour (bulk (group D)): 0.5 ± 0.3 %ID/g
68Ga activity in small intestine (bulk (group D)): 18.4 ± 5 %ID/g
68Ga activity in stomach (bulk (group D)): 11.9 ± 8.1 %ID/g
68Ga activity in large intestine (bulk (group D, combined with KP46 0.4 μmol)): 56.5 ± 21.4 %ID/g
uptake in large intestine, ex vivo (tracer level (group C)): 61.7 ± 21.5 %ID/g
uptake in small intestine, ex vivo (tracer level (group C)): 12.8 ± 4.1 %ID/g
